# Results: patent US20190315711A1 (eXIthera Pharmaceuticals, Inc., priority 2016, published 2019)
# Key:
# [1] = biological target: human Factor XIa (Homo sapiens, UniProt P03951); test: Factor XIa enzyme inhibition assay (dose response, fluorogenic AMC substrate); assay type: biochemical; design: Enzyme: Factor XIa; conditions: purified enzyme; substrate 50 μM, enzyme 0.25 nM; read-out: hFXIa IC50
# Method: (§1) • Assay buffer: 20 mM Hepes, pH 7.4; 150 mM NaCl; 0.02% Tween 20 • Compounds: 10 mM stocks in DMSO • Substrate: 20 mM Glp-Pro-Arg-AMC, 25 mg/2.3 mL H2O (store at +4° C.) [Factor XIa, thrombin, and trypsin] • 20 mM Pro-Phe-Arg-AMC (Bachem I-1295), 25 mg/2.2 mL H2O or Boc-Leu-Gly-Arg-AMC (Bachem I-1105), 25 mg/2.07 mL H2O (store at +4° C.) [Factor Xa] • Enzyme: Factor XIa; 0.25 M in 50% glycerol (20 μg/mL) • Trypsin; 0.2 μM in 50% glycerol (4.8 μg/mL) • Thrombin; 0.2 μM in 50% glycerol (7.34 μg/mL) • Factor Xa; 0.2 μM in 50% glycerol (9.2 μg/mL)
# (§2) • 1. Dilute the substrate to 100 μM in assay buffer (30 μL/6 mL). The enzyme is diluted to 0.5 nM just prior to use (12 L/6 mL for Factor XIa; 15 μL/6 mL for all of the rest.) • 2. Pipette 50 μL of substrate into each well of the 96 well (12×8) microtiter plate. (Column 1 is used as the 100% activity control and receives no compound, and Column 12 is the blank and receives no enzyme.) Add an additional 46 μL to column 2. • 3. Pipette 4 μL of each compound into the appropriate well in column 2 of the plate (unknowns assayed in triplicate, standard assayed in duplicate). The final compound concentration will be 1/50th of the stock. • 4. Serially two-fold dilute the compound by mixing the sample in column 2, removing 50 μL to the next well (column 3), mix and remove to column 4, etc. until column 11. After mixing column 11, remove 50 μL and discard. • 5. Pipette 50 μL of buffer into column 12. Initiate the reaction by adding 50 μL of enzyme solution to each well of columns 1-11 as rapidly as possible. • 6. Read the plate in a spectrophotometer (SpectraMax) at 30° C., wherein each well is measured every 60 s for 30 min. For Factor Xa assays, each well is measured every 1 min for a total of 60 min. • 7. For Factor XIa assays, the compounds are assayed, in duplicate, at 3 different starting concentrations, 20, 2, and 0.2 μM; 1:10, 1:100, and 1:1000 dilution of 10 mM stock or at 2, 0.2, and 0.02 μM; 1:100, 1:1000, and 1:10,000 dilution of 10 mM stock. Data for each concentration are combined for graphing and data fitting. • 8. Data can be used both for estimation of IC50 and for estimation of Kon.
# Potential inhibitors of Factor XIa were evaluated using the following assay.
# PyroGlu-Pro-Arg-7-methylaminocourin (AMC), available from CPC Scientific, Inc., is based on the substrate pyro-Glu-Pro-Arg-pNA (S-2366), available from Diapharma Group, Inc. (Columbus, Ohio), wherein the p-nitroanaline group is replaced with 7-methylaminocoumarin (AMC).
# The final concentration of the substrate in the assay was 50 μM, and the final concentration of the enzyme was 0.25 nM. Inhibitors were tested by serial dilution over an appropriate range to yield a dose response curve for determination of the inhibitors' IC50 value. The assay mixture was read every minute for 30 minutes in order to generate progress curves. The plates were read in a Spectramax m5 Multimode Plate Reader (Molecular Devices LLC, Sunnyvale, Calif.). Dose response curves were fit to Equation 1 below in which A is the maximum inhibition, B is the minimum inhibition, C is the IC50, and D is the Hill coefficient.
# Y=[(A−B)/(1+(X/C)^D)]+B (Equation 1)
# [2] = biological target: T1, Trypsin (Bos taurus, UniProt P00760); test: Dose response assay for protease inhibitors: trypsin; assay type: biochemical; conditions: ratio versus Factor XIa
# T1 construct: gene PRSS1
# T1 sequence (P00760 24-246): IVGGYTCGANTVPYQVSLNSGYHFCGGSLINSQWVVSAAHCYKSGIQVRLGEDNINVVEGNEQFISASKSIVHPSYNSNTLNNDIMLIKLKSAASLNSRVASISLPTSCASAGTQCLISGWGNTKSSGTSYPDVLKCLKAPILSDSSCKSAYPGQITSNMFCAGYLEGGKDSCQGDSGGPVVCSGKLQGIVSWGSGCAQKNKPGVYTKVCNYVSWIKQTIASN
# Method: as §1, §2
# [3] = biological target: T2, Thrombin (Homo sapiens, UniProt P00734); test: Dose response assay for protease inhibitors: thrombin; assay type: biochemical; conditions: ratio versus Factor XIa
# T2 construct: Thrombin; 0.2 μM in 50% glycerol (7.34 μg/mL)
# Method: as §1, §2
# [4] = biological target: T3, Factor Xa (Homo sapiens, UniProt P00742); test: Dose response assay for protease inhibitors: Factor Xa; assay type: biochemical; conditions: ratio versus Factor XIa
# T3 construct: Factor Xa; 0.2 μM in 50% glycerol (9.2 μg/mL)
# T3 sequence (P00742 235-488 limits assumed): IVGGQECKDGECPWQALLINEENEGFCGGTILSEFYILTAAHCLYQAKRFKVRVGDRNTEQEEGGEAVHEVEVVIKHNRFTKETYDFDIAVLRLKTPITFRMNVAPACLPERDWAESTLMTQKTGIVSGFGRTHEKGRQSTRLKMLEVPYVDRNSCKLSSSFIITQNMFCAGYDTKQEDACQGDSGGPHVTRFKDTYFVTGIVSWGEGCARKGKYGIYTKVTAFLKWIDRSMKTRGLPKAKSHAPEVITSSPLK
# T3 sequence (P00742 41-179 partner limits assumed): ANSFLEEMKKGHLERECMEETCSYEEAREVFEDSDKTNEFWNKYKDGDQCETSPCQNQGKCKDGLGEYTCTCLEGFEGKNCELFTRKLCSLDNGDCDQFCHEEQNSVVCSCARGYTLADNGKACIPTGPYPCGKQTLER
# Method: as §1, §2
# [5] = Caco-2 cell permeability assay (A-B and B-A); assay type: in vitro ADME; conditions: human; for Papp A→B at 60 min, 10 μM: A-B direction; for Papp B→A at 40 min, 10 μM: B-A direction
# Method: The following procedure was used to determine the ability of a test compound to cross Caco-2 cells (human intestinal epithelial cells derived from a colorectal adenocarcinoma). The cells were seeded at 1×10^5 cells/cm^2 in 96-well Multiscreen™ plates (Millipore). Permeability assays were performed with the cells at days 21-25 post-seeding. Cells are typically used for 15 consecutive passages in culture.
# This assay can be performed in either the apical to basolateral (A−B) or basolateral to apical (B−A) direction. The test compound was prepared at 10 μM in HBSS-MES (pH 6.5) or HBSS-HEPES (pH 7.4) with a final DMSO concentration of 1%. The working solution was then centrifuged and the supernatant added to the donor side. The assay plate was incubated at 37° C. with gentle shaking for 60 min or 40 min for the A−B or B−A assay, respectively. Samples were aliquoted from the donor side at time zero and the end point, and from the receiver side at the end point.
# Reference compounds, propranolol (highly permeable), labetalol (moderately permeable), ranitidine (poorly permeable), and colchicine (P-glycoprotein substrate) were included in each assay.
# Samples are analyzed by HPLC-MS/MS using selected reaction monitoring. The HPLC system consists of a binary LC pump with autosampler, a C-18 column, and a gradient.
# The apparent permeability coefficient (Papp) of the test compound (Equation 2) and its recovery (Equation 3) are calculated as follows: […]
# wherein A is the surface area of the cell monolayer (0.11 cm^2), C is concentration of the test compound expressed as peak area, D denotes donor, and R is receiver. “0”, “mid,” and “end” denote time at zero, mid-point, and end of the incubation, respectively. At is the incubation time. V is the volume of the donor or receiver.
# This is most likely due to non-specific binding or degradation.
# human Factor XIa, sequence (P03951 388-625 limits assumed): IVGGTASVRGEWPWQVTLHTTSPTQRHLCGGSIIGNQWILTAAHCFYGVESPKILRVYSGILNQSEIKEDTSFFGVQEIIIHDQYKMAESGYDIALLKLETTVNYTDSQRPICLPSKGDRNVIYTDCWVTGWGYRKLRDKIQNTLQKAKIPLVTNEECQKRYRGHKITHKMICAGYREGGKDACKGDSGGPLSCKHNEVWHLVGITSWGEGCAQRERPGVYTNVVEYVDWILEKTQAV
# human Factor XIa, sequence (P03951 19-387 partner limits assumed): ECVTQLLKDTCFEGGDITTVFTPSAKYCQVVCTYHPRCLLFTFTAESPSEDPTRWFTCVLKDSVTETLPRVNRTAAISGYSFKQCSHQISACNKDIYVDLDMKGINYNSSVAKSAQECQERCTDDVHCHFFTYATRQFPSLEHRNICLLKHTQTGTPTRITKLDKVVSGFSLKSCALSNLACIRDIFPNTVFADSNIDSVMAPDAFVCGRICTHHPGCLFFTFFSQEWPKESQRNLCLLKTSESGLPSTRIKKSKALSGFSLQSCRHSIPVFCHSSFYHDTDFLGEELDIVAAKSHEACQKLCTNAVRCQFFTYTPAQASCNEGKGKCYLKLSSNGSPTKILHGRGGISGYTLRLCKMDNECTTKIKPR
Compound,IC50 [1],further results
CCN(C(=O)[C@@H]1[C@@H](Cc2ccnc(N)c2)C(=O)N1C(=O)N[C@@H](C1CC1)C(F)(F)F)c1ncccn1 [Compound 79],10 to 100 nM,Ratio: Thrombin/FXIa [3]: H (“H” indicates 101-1000); FXa/FXIa (selectivity ratio) [4]: H (“H” indicates 101-1000)
CC[C@@H](NC(=O)N1C(=O)[C@H](Cc2ccnc(N)c2)[C@H]1C(=O)N(C)c1cc(Cl)cc(Cl)c1)C1CCCCC1 [Compound 51],< 10 nM,"Papp A→B at 60 min, 10 μM [5]: ≤ 10 ×10⁻⁶ cm/s; Papp B→A at 40 min, 10 μM [5]: ≤ 10 ×10⁻⁶ cm/s"
CCN(C(=O)[C@@H]1[C@@H](Cc2ccnc(N)c2)C(=O)N1C(=O)N[C@@H](C1CCCCC1)C1CC1)c1ncccn1 [Compound 54],< 10 nM,"Papp A→B at 60 min, 10 μM [5]: 11 to 30 ×10⁻⁶ cm/s; Papp B→A at 40 min, 10 μM [5]: ≤ 10 ×10⁻⁶ cm/s"
CN(C(=O)[C@@H]1[C@@H](Cc2ccnc(N)c2)C(=O)N1C(=O)N[C@@H](c1cccnc1)C(F)(F)F)c1ccccc1 [Compound 67],10 to 100 nM,–
CN(C(=O)[C@@H]1[C@@H](Cc2ccnc(N)c2)C(=O)N1C(=O)N[C@@H](C1CCCCC1)C(F)(F)F)c1ccccn1 [Compound 16],< 10 nM,–
CCC[C@@H](NC(=O)N1C(=O)[C@H](Cc2ccnc(N)c2)[C@H]1C(=O)N(C)c1ncccn1)c1cccnc1 [Compound 74],< 10 nM,–
CN(C(=O)[C@@H]1[C@@H](Cc2ccnc(N)c2)C(=O)N1C(N)=O)c1ccccc1 [Compound 57],100 to 1000 nM,–
CN(C(=O)[C@@H]1[C@@H](Cc2ccnc(N)c2)C(=O)N1C(=O)N[C@@H](c1cccnc1)C1CC1)c1ncccn1 [Compound 75],< 10 nM,–
CN(C(=O)[C@@H]1[C@@H](Cc2ccnc(N)c2)C(=O)N1C(=O)N[C@@H](C1CCCCC1)C(F)(F)F)c1ccncn1 [Compound 20],< 10 nM,–
CC[C@@H](NC(=O)N1C(=O)[C@H](Cc2ccnc(N)c2)[C@H]1C(=O)N(C)c1ccccc1C)C1CCCCC1 [Compound 26],10 to 100 nM,–
Cc1cccc(N(C)C(=O)[C@@H]2[C@@H](Cc3ccnc(N)c3)C(=O)N2C(=O)N[C@@H](C2CCCCC2)C(F)(F)F)c1 [Compound 14],10 to 100 nM,–
CN(C(=O)[C@@H]1[C@@H](Cc2ccnc(N)c2)C(=O)N1C(=O)N[C@@H](C1CC1)C(F)(F)F)c1ccccc1 [Compound 70],10 to 100 nM,"Papp A→B at 60 min, 10 μM [5]: 11 to 30 ×10⁻⁶ cm/s; Papp B→A at 40 min, 10 μM [5]: 31 to 50 ×10⁻⁶ cm/s; Ratio: Thrombin/FXIa [3]: G (“G” indicates 1-100); FXa/FXIa (selectivity ratio) [4]: I (“I” indicates >500)"
CCN(C(=O)[C@@H]1[C@@H](Cc2ccnc(N)c2)C(=O)N1C(=O)N[C@@H](C1CCCCC1)C(F)(F)F)c1ncccn1 [Compound 38],< 10 nM,"Papp A→B at 60 min, 10 μM [5]: ≤ 10 ×10⁻⁶ cm/s; Papp B→A at 40 min, 10 μM [5]: ≤ 10 ×10⁻⁶ cm/s"
CN(C(=O)[C@@H]1[C@@H](Cc2ccnc(N)c2)C(=O)N1C(=O)NC1CCCc2ccccc21)c1ccccc1 (some centres unmarked) [Compound 41],100 to 1000 nM,–

# Second part, led by results:
IC50 [1],Compound,further results
< 10 nM,CC[C@@H](NC(=O)N1C(=O)[C@H](Cc2ccnc(N)c2)[C@H]1C(=O)N(C)c1ccncc1)c1ccc(C)nc1 [Compound 104],Ratio: Trypsin/FXIa [2]: H (“H” indicates 101-1000); Ratio: Thrombin/FXIa [3]: H (“H” indicates 101-1000); FXa/FXIa (selectivity ratio) [4]: I (“I” indicates >500)
< 10 nM,CC[C@@H](NC(=O)N1C(=O)[C@H](Cc2ccnc(N)c2)[C@H]1C(=O)N(C)c1ccnc(C)c1)c1cccc(Cl)c1 [Compound 124],Ratio: Trypsin/FXIa [2]: G (“G” indicates 1-100); Ratio: Thrombin/FXIa [3]: G (“G” indicates 1-100); FXa/FXIa (selectivity ratio) [4]: H (“H” indicates 101-1000)
10 to 100 nM,CC[C@@H](NC(=O)N1C(=O)[C@H](Cc2ccnc(N)c2)[C@H]1C(=O)N(C)c1ccncc1)c1ccccc1C [Compound 96],FXa/FXIa (selectivity ratio) [4]: I (“I” indicates >500)
10 to 100 nM,CC[C@@H](NC(=O)N1C(=O)[C@H](Cc2cc(N)ncc2C)[C@H]1C(=O)N(C)c1ccncc1)C1CCCCC1 [Compound 92],–
10 to 100 nM,CC[C@@H](NC(=O)N1C(=O)[C@H](Cc2cc(C)nc(N)c2)[C@H]1C(=O)N(C)c1ccncc1)c1ccc(C)nc1 [Compound 133],–
10 to 100 nM,CC[C@@H](NC(=O)N1C(=O)[C@H](Cc2ccnc(N)c2)[C@H]1C(=O)N(C)c1ccncc1)c1ccc(OC(F)(F)F)cc1 [Compound 94],–
< 10 nM,CCc1cccc([C@@H](CC)NC(=O)N2C(=O)[C@H](Cc3ccnc(N)c3)[C@H]2C(=O)N(C)c2ccncc2)c1 [Compound 126],–
> 1000 nM,CC[C@@H](NC(=O)N1C(=O)[C@H](Cc2cc(N)ncc2F)[C@H]1C(=O)N(C)c1ccccc1)C1CCCCC1 [Compound 85],–
< 10 nM,CC[C@@H](NC(=O)N1C(=O)[C@H](Cc2ccnc(N)c2)[C@H]1C(=O)N(C)c1ccncc1)c1cccc(Cl)c1Cl [Compound 125],–
10 to 100 nM,CC[C@@H](NC(=O)N1C(=O)[C@H](Cc2ccnc(N)c2)[C@H]1C(=O)N(C)c1cc(C)nc(C)c1)c1cccc(Cl)c1 [Compound 123],–
< 10 nM,CC[C@@H](NC(=O)N1C(=O)[C@H](Cc2ccnc(N)c2)[C@H]1C(=O)N(C)c1cccc(F)c1)c1ccc(C)nc1 [Compound 136],–
10 to 100 nM,CC[C@@H](NC(=O)N1C(=O)[C@H](Cc2ccnc(N)c2)[C@H]1C(=O)N(C)c1ccncc1)c1cncnc1 [Compound 102],–
< 10 nM,CC[C@@H](NC(=O)N1C(=O)[C@H](Cc2cc(C)nc(N)c2)[C@H]1C(=O)N(C)c1ccncc1)c1cccc(Cl)c1 [Compound 111],–
10 to 100 nM,CC[C@@H](NC(=O)N1C(=O)[C@H](Cc2ccnc(NC(C)=O)c2)[C@H]1C(=O)N(C)c1ccncc1)c1cccc(Cl)c1 [Compound 107],–
